Experimental data taken from PubChem BioAssay (NCI).
Several values for one entry are separate records, joined by “and”; a condition that tells them apart may be missing. Equal values may be shown once.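 How tested: cells in 96-well plates exposed to compound for 48 hours at five concentrations. GI50 is the concentration that inhibits growth by half. TGI: concentration producing complete growth inhibition.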

How the values were obtained:
Test in all cases: growth of human tumour cells (NCI), 48 h
SN12C renal = tested on: SN12C renal
ACHN renal = tested on: ACHN renal
HS 578T breast = tested on: HS 578T breast
HL-60(TB) leukemia = tested on: HL-60(TB) leukemia
SNB-19 CNS = tested on: SNB-19 CNS
SK-MEL-5 melanoma = tested on: SK-MEL-5 melanoma
CAKI-1 renal = tested on: CAKI-1 renal
SK-OV-3 ovarian = tested on: SK-OV-3 ovarian
MOLT-4 leukemia = tested on: MOLT-4 leukemia
T-47D breast = tested on: T-47D breast

Structure (SMILES)	GI50 (SN12C renal)	TGI (SN12C renal)	GI50 (ACHN renal)	TGI (ACHN renal)	GI50 (HS 578T breast)	TGI (HS 578T breast)	GI50 (HL-60(TB) leukemia)	TGI (HL-60(TB) leukemia)	GI50 (SNB-19 CNS)	TGI (SNB-19 CNS)	TGI (SK-MEL-5 melanoma)	GI50 (CAKI-1 renal)	GI50 (SK-OV-3 ovarian)	GI50 (MOLT-4 leukemia)	GI50 (T-47D breast)	TGI (T-47D breast)	GI50 (SK-MEL-5 melanoma)	TGI (CAKI-1 renal)	TGI (SK-OV-3 ovarian)	TGI (MOLT-4 leukemia)
C[C@H]1CCC/C=C/[C@@H]2C[C@H](O)C[C@H]2[C@H](O)[C@H](S(=O)c2ccc(O)cc2)CC(=O)O1 (stereo partly specified)	0.0497 µM	0.489 µM	0.0654 µM	0.41 µM	0.0726 µM	> 100 µM	0.0338 µM	0.139 µM	0.187 µM	> 100 µM	0.121 µM	0.114 µM	< 0.0205 µM	< 0.0212 µM	0.2 µM	0.67 µM				
O=C1C=C(Nc2ccccc2)c2ncccc2C1=O	0.29 µM	0.829 µM	0.349 µM	1.22 µM	2.33 µM	6.58 µM	0.842 µM	3.84 µM	0.411 µM	1.43 µM	0.318 µM	1.39 µM	1.75 µM	1.02 µM	1.27 µM	3.58 µM	0.177 µM	2.7 µM	3.16 µM	3.78 µM
CCCCCCCCN(CCCCCCCC)C(=N)c1ccnc2ccccc12	1.16 µM	2.68 µM	1.37 µM	2.78 µM	1.71 µM	4.81 µM	1.3 µM	2.97 µM	1.55 µM	3.17 µM		1.17 µM	1.61 µM		1.24 µM	2.93 µM		2.44 µM	3 µM	
CCCCCCCC1c2cc3[nH]c(cc4nc(cc5[nH]c(cc(n2)[C@@]1(C)CC(=O)N(C)C)c(C)c5CCC(=O)O)C(CCC(=O)O)=C4C)cc3C (stereo partly specified)		76.1 µM		35.8 µM		40.6 µM		45.8 µM		36.9 µM	51 µM					> 100 µM		> 100 µM	> 100 µM	
NC1=NC(=O)N2CC12 (stereo unspecified)		> 100 µM and 349 µM	347 µM	> 100 µM and 1020 µM	316 µM	1720 µM	13.7 µM		516 µM	> 100 µM and 1120 µM	> 100 µM and 1450 µM	35.1 µM	369 µM	53.3 µM	26.7 µM and 54.5 µM	316 µM	638 µM	> 100 µM and 118 µM	> 100 µM and 991 µM	> 100 µM and 185 µM
CS(=O)(=O)CCNCc1ccc(-c2ccc3ncnc(Nc4ccc(OCc5ccccc5)c(C(F)(F)F)c4)c3c2)o1	5.22 µM	12.3 µM	7.32 µM	> 25 µM	4.16 µM	12.2 µM	5.65 µM	13.3 µM	4.79 µM	9.37 µM	6.87 µM	7.09 µM	7.19 µM	5.77 µM	6.76 µM	18.9 µM	3.55 µM	> 25 µM	> 22.1 µM	17.9 µM
COc1cc2c(c(OC)c1OC)-c1ccc(OC)c(=O)cc1[C@@H](NC(=O)CCl)CC2	< 0.0142 µM	> 51.5 µM	0.0295 µM	> 54.1 µM	< 0.01 µM	> 100 µM	< 0.01 µM	< 0.0136 µM	< 0.01 µM	28.7 µM	< 0.0124 µM	0.0386 µM	< 0.01 µM	< 0.01 µM	13.2 µM	> 59 µM	< 0.01 µM	21.2 µM		> 100 µM
C/C(=C\c1ccn(-c2ccc(N)c(C(F)(F)F)c2)n1)[C@@H]1C[C@@H]2O[C@]2(C)CCC[C@H](C)[C@H](O)[C@@H](C)C(=O)C(C)(C)[C@@H](O)CC(=O)O1	0.0237 µM	> 32.5 µM	0.0268 µM	> 29.2 µM	0.0103 µM	11 µM	0.0086 µM	0.203 µM	0.0287 µM	> 32.5 µM	3.78 µM	0.0429 µM	0.103 µM	0.0166 µM	0.0164 µM	28.3 µM	< 0.0108 µM	> 32.5 µM	> 27.9 µM	19.8 µM
C=C(C)C(=O)NC(N)=NC#N	72.1 µM	199 µM	68 µM	271 µM		797 µM		42.6 µM and 50.3 µM		330 µM	310 µM			21.5 µM and 46.7 µM	57.5 µM	56.3 µM and 206 µM	171 µM	44.7 µM and 82.9 µM	308 µM	52.2 µM and 255 µM
CN(C)CC/C=C1\c2ccccc2Sc2ccc(Cl)cc21	2.84 µM	13.7 µM and 29.9 µM	3.61 µM	14.4 µM and 29.6 µM	2.99 µM	15.1 µM and 37 µM	4.46 µM	13.7 µM and 27.7 µM	2.62 µM	10.6 µM and 29.9 µM	3 µM and 28.6 µM	2.56 µM	1.99 µM	3.44 µM	1.46 µM		1.62 µM	11.4 µM and 21.4 µM	5 µM and 30.7 µM	9.98 µM and 25.9 µM
CC(C)C1C(=O)N2CCCC2C2(O)OC(NC(=O)C3C=C4c5cccc6[nH]cc(c56)CC4N(C)C3)(C(C)C)C(=O)N12 (stereo unspecified)		> 100 µM		43.4 µM		> 100 µM		48.5 µM		> 100 µM	57.9 µM					> 100 µM		37.9 µM		53.8 µM
CON(C)C(=O)C(Cc1ccccc1)NC(=O)OC(C)(C)C (stereo unspecified)		> 100 µM		> 100 µM		> 100 µM		> 100 µM		> 100 µM	> 100 µM					> 100 µM			> 100 µM	> 100 µM
O=S(=O)(NCCNc1cc(-c2cn(-c3ccccc3)nc2-c2cccc(O)c2)ccn1)c1ccc(C(F)(F)F)cc1	2.31 µM	5.49 µM			2.31 µM	19.4 µM	2.17 µM	4.77 µM	3.79 µM	17.4 µM	3.36 µM	1.94 µM	3.79 µM	2.05 µM	1.84 µM	6.73 µM	1.78 µM	5.35 µM	16.2 µM	5.71 µM
C=C1C(=O)O[C@@H]2[C@H]1CC[C@H](C)[C@]1(O)CCC(=O)[C@@]21C		> 10 µM				> 10 µM		> 10 µM		> 10 µM	> 10 µM					> 10 µM			> 10 µM	> 10 µM
